# Measurements reported in patent publication US20130065818A1, “Arylamide Compounds And Compositions And Uses Thereof” (POLYMEDIX, priority 2006, published 2013).
# Where two headings read alike, the source gives them in different places.
# Tests used:
# Type in all cases: cell-based
# [1] = tested on: Fluoroquinolone-Resistant Methicillin-Resistant Staphylococcus aureus Strain K950; assay: MIC characterization of strain K950; details: read-out: MIC (Minimum Inhibitory Concentration)
# [2] = tested on: K. pneumoniae Lab Strain KP10; assay: MIC, laboratory strains (Example 8)
# [3] = tested on: Staphylococcus aureus fluoroquinolone-susceptible; assay: MIC, 25 ocular isolates, broth microdilution (Example 8)
# Method: • Mueller-Hinton Broth in tubes was inoculated with 25 ocular isolates of Staphylococcus aureus fluoroquinolone-susceptible, Staphylococcus aureus fluoroquinolone-resistant, Staphylococcus epidermidis (Coagulase-negative Staphylococcus) fluoroquinolone-susceptible, Staphylococcus epidermidis (Coagulase-negative Staphylococcus) fluoroquinolone-resistant, Pseudomonas aeruginosa and Serratia marcescens, plus two controls (Staphylococcus aureus and E. coli) and incubated at 37° C. overnight on a shaker set at 250 rpm.
# On the day of testing, a 640 μg/ml (1280 μg/ml for Serratia marcescens and Pseudomonas aeruginosa) concentration was prepared from a 1% stock solution in 0.01% acetic acid, 0.2% BSA in polypropylene tubes.
# Serial doubling dilutions in 0.01% acetic acid, 0.2% BSA in 96 well polypropylene plates, which are used as reservoirs for the inoculation of the test plates, were carried out to obtain serial dilutions of test agents at 10 times the required test concentrations: 640, 320, 160, 80, 40, 20, 10, 5, 2.5, 1.25, and 0.625 μg/ml (1280, 640, 320, 160, 80, 40, 20, 10, 5, 2.5, and 1.25 μg/ml for Serratia marcescens and Pseudomonas aeruginosa).
# Ten μl of diluted 10×test agents was added to each well of one row of the 96 well polypropylene plates from column 2 to column 12 (column 1 is a control for bacteria alone, with no peptide). Test agent concentrations in columns 2-12 were as follows: 64, 32, 16, 8, 4, 2, 1, 0.5, 0.25, 0.125, and 0.0625 μg/ml (128, 64, 32, 16, 8, 4, 2, 1, 0.5, 0.25, and 0.125 μg/ml for Serratia marcescens and Pseudomonas aeruginosa). The same peptide was in each of the 8 rows. One plate contained dilutions of one test agent and 8 bacterial isolates.
# On the day of testing, the overnight bacterial broth cultures of Staphylococcus aureus fluoroquinolone-susceptible, Staphylococcus aureus fluoroquinolone-resistant, Staphylococcus epidermidis (Coagulase-negative Staphylococcus) fluoroquinolone-susceptible, Staphylococcus epidermidis (Coagulase-negative Staphylococcus) fluoroquinolone-resistant, Serratia marcescens, and Pseudomonas aeruginosa, plus two controls (Staphylococcus aureus and E. coli) were diluted in 5 ml of trypticase soy broth to yield turbidity equal to a 0.5 McFarland standard. The final inoculum for MIC testing for Staphylococcus aureus fluoroquinolone-susceptible, Staphylococcus aureus fluoroquinolone-resistant, Staphylococcus epidermidis (Coagulase-negative Staphylococcus) fluoroquinolone-susceptible, Staphylococcus epidermidis (Coagulase-negative Staphylococcus) fluoroquinolone-resistant, Serratia marcescens, and Pseudomonas aeruginosa was achieved by placing 0.05 ml of the turbidity adjusted sample to 5 ml of Mueller-Hinton broth.
# Ninety μl of the bacterial suspensions was dispensed in each well from column 1 to column 12. Each bacterial isolate was placed in one row of a 96 well polypropylene plate containing the test agents. The plates were placed on shaker at 15 minutes at room temperature, and then incubated at 37° C. overnight. MICs were determined visually as the lowest concentration of drug that inhibits visible bacterial growth.
# [4] = tested on: P. aeruginosa ATCC 10145; assay: MIC, laboratory strains (Example 8)
# [5] = tested on: Serratia marcescens; assay: MIC, 25 ocular isolates, broth microdilution (Example 8)
compound,measurement,setting,value
N=C(N)NCCCCC(=O)Nc1cc(C(F)(F)F)cc(NC(=O)c2cc(C(=O)Nc3cc(C(F)(F)F)cc(NC(=O)CCCCNC(=N)N)c3SCCN)ncn2)c1SCCN [Oligomer 2],MIC,[1],0.25 µg/mL
N=C(N)NCCCCC(=O)Nc1cc(C(F)(F)F)cc(NC(=O)c2cnc(C(=O)Nc3cc(C(F)(F)F)cc(NC(=O)CCCCNC(=N)N)c3SCCN)cn2)c1SCCN [Oligomer 5],MIC,[2],1.56 µg/mL
same,MIC50,"[3]; 25 isolates, Row 13",0.25 µg/mL
same,MIC90,"[3]; 25 isolates, Row 22",0.25 µg/mL
same,Range of MICs,"[3]; 25 isolates, Summary of Results",0.125 to 0.5 µg/mL
same,MIC,"[3]; Staphylococcus aureus, 25 ocular isolates, read-out: Median MIC",≤ 0.25 µg/mL
same,MIC,"[3]; Staphylococcus aureus, isolate 1—E402, read-out: MIC",0.5 µg/mL
same,MIC,"[3]; Staphylococcus aureus, isolate 2—E1512, read-out: MIC",0.25 µg/mL
same,MIC,"[3]; Staphylococcus aureus, isolate 3—E253, read-out: MIC",0.25 µg/mL
same,MIC,"[3]; Staphylococcus aureus, isolate 4—K1518, read-out: MIC",0.125 µg/mL
same,MIC,"[3]; Staphylococcus aureus, isolate 5—K1525, read-out: MIC",0.125 µg/mL
same,MIC,"[3]; Staphylococcus aureus, isolate 6—K1663, read-out: MIC",0.125 µg/mL
same,MIC,"[3]; Staphylococcus aureus, isolate 7—K1648, read-out: MIC",0.125 µg/mL
same,MIC,"[3]; Staphylococcus aureus, isolate 8—K1646, read-out: MIC",0.25 µg/mL
same,MIC,"[3]; Staphylococcus aureus, isolate 9—K1642, read-out: MIC",0.25 µg/mL
same,MIC,"[3]; Staphylococcus aureus, isolate 10—K1638, read-out: MIC",0.25 µg/mL
same,MIC,"[3]; Staphylococcus aureus, isolate 11—K1628, read-out: MIC",0.25 µg/mL
same,MIC,"[3]; Staphylococcus aureus, isolate 12—K1618, read-out: MIC",0.125 µg/mL
same,MIC,"[3]; Staphylococcus aureus, isolate 13—K1617, read-out: MIC",0.25 µg/mL
same,MIC,"[3]; Staphylococcus aureus, isolate 14—K1611, read-out: MIC",0.25 µg/mL
same,MIC,"[3]; Staphylococcus aureus, isolate 15—K1607, read-out: MIC",0.25 µg/mL
same,MIC,"[3]; Staphylococcus aureus, isolate 16—K1600, read-out: MIC",0.125 µg/mL
same,MIC,"[3]; Staphylococcus aureus, isolate 17—K1591, read-out: MIC",0.5 µg/mL
same,MIC,"[3]; Staphylococcus aureus, isolate 18—K1585, read-out: MIC",0.25 µg/mL
same,MIC,"[3]; Staphylococcus aureus, isolate 19—K1583, read-out: MIC",0.25 µg/mL
same,MIC,"[3]; Staphylococcus aureus, isolate 20—K1574, read-out: MIC",0.25 µg/mL
same,MIC,"[3]; Staphylococcus aureus, isolate 21—K1566, read-out: MIC",0.25 µg/mL
same,MIC,"[3]; Staphylococcus aureus, isolate 22—K1551, read-out: MIC",0.125 µg/mL
same,MIC,"[3]; Staphylococcus aureus, isolate 23—K1545, read-out: MIC",0.25 µg/mL
same,MIC,"[3]; Staphylococcus aureus, isolate 24—K1540, read-out: MIC",0.25 µg/mL
same,MIC,"[3]; Staphylococcus aureus, isolate 25—K1530, read-out: MIC",0.5 µg/mL
same,MIC,"[3]; Staphylococcus aureus, n=25 per group, read-out: Median MIC",0.25 µg/mL
same,MIC50,"[3]; Staphylococcus aureus, 25 isolates, Summary of Results, read-out: MIC50",0.25 µg/mL
same,MIC90,"[3]; Staphylococcus aureus, 25 isolates, Summary of Results, read-out: MIC90",0.5 µg/mL
same,MIC,"[3]; Staphylococcus aureus, 25 isolates, Summary of Results, read-out: Median MIC",0.25 µg/mL
same,MIC50,[3]; n=25 per group,0.25 µg/mL
same,MIC90,[3]; n=25 per group,0.5 µg/mL
same,Range of MICs,[3]; n=25 per group,0.125 to 0.5 µg/mL
same,MIC,[4],> 100 µg/mL
same,MIC50,"[5]; 25 isolates, Row 13, >128 was Replaced with 256",256 µg/mL
same,MIC90,"[5]; 25 isolates, Row 22, >128 was Replaced with 256",256 µg/mL
same,Range of MICs,"[5]; 25 isolates, Summary of Results, >128 was Replaced with 256",8 to 256 µg/mL
same,MIC,"[5]; Serratia marcescens, 25 ocular isolates, read-out: Median MIC",128 µg/mL
same,MIC,"[5]; Serratia marcescens, isolate 1—K1681, read-out: MIC",> 128 µg/mL
same,MIC,"[5]; Serratia marcescens, isolate 2—K1674, read-out: MIC",> 128 µg/mL
same,MIC,"[5]; Serratia marcescens, isolate 3—K1558, read-out: MIC",> 128 µg/mL
same,MIC,"[5]; Serratia marcescens, isolate 4—K1538, read-out: MIC",> 128 µg/mL
same,MIC,"[5]; Serratia marcescens, isolate 5—K1503, read-out: MIC",> 128 µg/mL
same,MIC,"[5]; Serratia marcescens, isolate 6—K1216, read-out: MIC",> 128 µg/mL
same,MIC,"[5]; Serratia marcescens, isolate 7—K1496, read-out: MIC",> 128 µg/mL
same,MIC,"[5]; Serratia marcescens, isolate 8—K1481, read-out: MIC",> 128 µg/mL
same,MIC,"[5]; Serratia marcescens, isolate 9—K1470, read-out: MIC",> 128 µg/mL
same,MIC,"[5]; Serratia marcescens, isolate 10—K1468, read-out: MIC",> 128 µg/mL
same,MIC,"[5]; Serratia marcescens, isolate 11—K1467, read-out: MIC",> 128 µg/mL
same,MIC,"[5]; Serratia marcescens, isolate 12—K1462, read-out: MIC",> 128 µg/mL
same,MIC,"[5]; Serratia marcescens, isolate 13—K1461, read-out: MIC",128 µg/mL
same,MIC,"[5]; Serratia marcescens, isolate 14—K1413, read-out: MIC",> 128 µg/mL
same,MIC,"[5]; Serratia marcescens, isolate 15—K1402, read-out: MIC",8 µg/mL
same,MIC,"[5]; Serratia marcescens, isolate 16—K1357, read-out: MIC",> 128 µg/mL
same,MIC,"[5]; Serratia marcescens, isolate 17—K1351, read-out: MIC",64 µg/mL
same,MIC,"[5]; Serratia marcescens, isolate 18—K1327, read-out: MIC",> 128 µg/mL
same,MIC,"[5]; Serratia marcescens, isolate 19—K1321, read-out: MIC",> 128 µg/mL
same,MIC,"[5]; Serratia marcescens, isolate 20—K1315, read-out: MIC",> 128 µg/mL
same,MIC,"[5]; Serratia marcescens, isolate 21—K1306, read-out: MIC",> 128 µg/mL
same,MIC,"[5]; Serratia marcescens, isolate 22—K1290, read-out: MIC",> 128 µg/mL
same,MIC,"[5]; Serratia marcescens, isolate 23—K1265, read-out: MIC",> 128 µg/mL
same,MIC,"[5]; Serratia marcescens, isolate 24—K1263, read-out: MIC",> 128 µg/mL
same,MIC,"[5]; Serratia marcescens, isolate 25—K1239, read-out: MIC",> 128 µg/mL
same,MIC,"[5]; Serratia marcescens, n=25 per group, read-out: Median MIC",256 µg/mL
same,MIC50,"[5]; Serratia marcescens, 25 isolates, Summary of Results, >128 was Replaced with 256, read-out: MIC50",256 µg/mL
same,MIC90,"[5]; Serratia marcescens, 25 isolates, Summary of Results, >128 was Replaced with 256, read-out: MIC90",256 µg/mL
same,MIC,"[5]; Serratia marcescens, 25 isolates, Summary of Results, >128 was Replaced with 256, read-out: Median MIC",256 µg/mL
same,MIC50,[5]; n=25 per group,256 µg/mL
same,MIC90,[5]; n=25 per group,256 µg/mL
same,Range of MICs,[5]; n=25 per group,8 to 256 µg/mL
